# Test results taken from patent US5527703A (Merck & Co., Inc., priority 1994, dated 1996).
# Entries after “also recorded” stand apart in the source; their conditions may differ.
# Legend:
# [1] = biological target: T1, GluCl α&β (Caenorhabditis elegans, UniProt G5EBR3+Q17328); assay: Antagonist block of ligand-activated current in oocytes injected with GluClα and GluClβ RNA; format: cell-based, C. elegans; settings: for inhibition at 100 µM: read-out: % Block; for % Block: blocker 100 μM
# T1 construct: the full-length open reading frame of the GluCl cDNA encoding the GluClα (52,550 kDa) and GluClβ (49,900kDa) subunits; expressed in transfected cells; host or cells: Xenopus laevis oocytes injected with in vitro RNA
# T1 sequence (G5EBR3 21-461): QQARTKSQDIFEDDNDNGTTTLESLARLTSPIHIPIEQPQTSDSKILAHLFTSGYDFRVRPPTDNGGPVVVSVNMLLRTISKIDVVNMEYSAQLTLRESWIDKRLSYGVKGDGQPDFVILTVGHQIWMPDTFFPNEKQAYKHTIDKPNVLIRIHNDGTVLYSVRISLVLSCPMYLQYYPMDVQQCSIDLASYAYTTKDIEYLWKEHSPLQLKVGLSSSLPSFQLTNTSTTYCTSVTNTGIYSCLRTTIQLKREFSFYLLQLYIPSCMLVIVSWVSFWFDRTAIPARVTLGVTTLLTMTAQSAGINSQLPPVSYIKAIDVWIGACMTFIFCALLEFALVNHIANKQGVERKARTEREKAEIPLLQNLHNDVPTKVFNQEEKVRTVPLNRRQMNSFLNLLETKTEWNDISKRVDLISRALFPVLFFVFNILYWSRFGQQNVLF
# T1 sequence (Q17328 23-434): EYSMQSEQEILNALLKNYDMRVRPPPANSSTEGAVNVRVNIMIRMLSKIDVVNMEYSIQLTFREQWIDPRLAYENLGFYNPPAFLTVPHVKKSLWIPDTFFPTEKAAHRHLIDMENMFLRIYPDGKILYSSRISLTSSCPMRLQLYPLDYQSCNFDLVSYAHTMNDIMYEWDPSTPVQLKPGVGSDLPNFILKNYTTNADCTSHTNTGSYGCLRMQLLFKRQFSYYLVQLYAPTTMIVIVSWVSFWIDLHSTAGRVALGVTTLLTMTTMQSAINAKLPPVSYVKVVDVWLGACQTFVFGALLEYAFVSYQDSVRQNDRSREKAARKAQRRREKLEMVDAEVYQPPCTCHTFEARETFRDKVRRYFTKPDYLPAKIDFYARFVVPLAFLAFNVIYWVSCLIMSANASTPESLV
# Description: (§1) Xenopus laevis oocytes were prepared and injected using standard methods previously described and known in the art [Arena, J. P., Liu. K. K., Paress, P. S. & Cully. D. F. Mol. Pharmacol. 40, 368-374 (1991 ); Arena, J. P., Liu, K. K., Paress, P. S., Schaeffer, J. M. & Cully, D. F. Mol. Brain Res. 15, 339-348 (1992)]. Adult female Xenopus laevis were anesthetized with 0.17% tricaine methanesulfonate and the ovaries were surgically removed and placed in a dish consisting of (mM): NaCl 1 82.5, KCl 2. MgCl2 1, CaCl2 1.8, HEPES 5 adjusted to pH 7.5 with NaOH (OR-2). Ovarian lobes were broken open, rinsed several times, and gently shaken in OR-2 containing 0.2% collagenase (Sigma, Type 1A) for 2-5 hours. When approximately 50% of the follicular layers were removed, Stage V and VI oocytes were selected and placed in media consisting of (mM): NaCl 86, KCl 2, MgCl2 1, CaCl2 1.8, HEPES 5, Na pyruvate 2.5, theophylline 0.5, gentamicin 0.1 adjusted to pH 7.5 with NaOH (ND-96) for 24-48 hours before injection. Oocytes were injected with 50-70 nl of poly(A^+) RNA (1 mg/ml) or 50 nl of GluClα (0.1-100 ng) and/or GluClβ (0.1-100 ng). Control oocytes were injected with 50 nl of water. Oocytes were incubated for 2-10 days in ND-96 before recording. Incubations and collagenase digestion were carried out at 18° C.
# (§2) Recordings were made at room temperature 2-10 days after injection. Unless otherwise indicated recordings were made in standard frog saline consisting of (mM): NaCl 115, KCl 2, MgCl2 1, CaCl2 1.8, HEPES 10 adjusted to pH 7.5 with NaOH. Oocytes were voltage-clamped using a standard two microelectrode amplifier (Dagan 8500 or TEV-200, Minneapolis,Minn.). Pipettes were filled with 3M KCl and had resistances between 0.5-3.0 M.OMEGA.. A plexiglass recording chamber (volume 200 μl) was constantly perfused at a rate of 10 ml/min. The recording chamber was connected to ground with a Ag/AgCl electrode directly, or through a 3M KCl agar bridge when extracellular chloride was varied. For low chloride solutions NaCl was replaced with equimolar concentrations of sodium isethionic acid. For low sodium solutions NaCl was replaced with equimolar KCl or choline Cl. Data were acquired and analyzed using PCLAMP with a TL-1 interface (Axon Instruments, Foster City, Calif.). Membrane current at a holding potential of -80 mV was recorded. The amplitude of drug-sensitive current was determined by subtracting the holding current at -80 mV from the peak current obtained in the presence of drug. Data were filtered at 30 Hz and sampled at 16.6 Hz. Current/voltage relationships (I/V) and reversal potentials (Erev) were determined using a 1-3 sec voltage ramp over the voltage range of -110 to +80 mV. For the ramps, data were filtered at 0.3-3 kHz and sampled at 160 Hz. Current in drug free solution was subtracted from current in the presence of drug to obtain drug-sensitive current/voltage relationships.
# Oocytes were injected simultaneously with GluClα and GluClβ RNA
# (25 pg each). n=at least four for each group. a- Data are expressed as %
# acid. e- Block was considered zero if response in the presence of blocker
# was ± 3% of control. f- (-)-Bicuculline methochloride g.
# [2] = tested on: arthropod H-receptors; settings: cited from earlier work
# [3] = biological target: T1, GluCl α&β; assay: Agonist activation of current in Xenopus oocytes injected with GluClα and GluClβ RNA (two-microelectrode voltage clamp); format: cell-based, C. elegans
# Description: as §1, §2
# (§3) Electrophysiological properties were examined in oocytes injected with in vitro RNA from pGluClα and pGluClβ (FIG. 5).
# Several ligand-gated ion channel agonists and antagonists were tested on oocytes injected with GluCl α&β (Table 1). […] 255, 449-464 (1976); Arena, J. P., Liu, K. K., Paress, P. S., Schaeffer, J. M. & Cully, D. F. Mol. Brain Res. 15, 339-348 (1992); Lea, T. J. & Usherwood, P. N. R. Comp. Gen. Pharmacol. 4, 351-363 (1973)].
# [4] = biological target: T2, GluClβ (Caenorhabditis elegans, UniProt Q17328); assay: Activation of current in Xenopus oocytes expressing homomeric GluClβ (voltage clamp); format: cell-based, C. elegans
# T2 construct: the full-length open reading frame of the GluCl cDNA encoding the GluClα (52,550 kDa) and GluClβ (49,900kDa) subunits; expressed in transfected cells; host or cells: Xenopus laevis oocytes injected with in vitro RNA
# T2 sequence (Q17328 23-434): T1 sequence (Q17328 23-434)
# Description: as §1, §2, §3
# [5] = biological target: T3, GluClα (Caenorhabditis elegans, UniProt G5EBR3); assay: Activation of current in Xenopus oocytes expressing homomeric GluClα (voltage clamp); format: cell-based, C. elegans; set-up: the full-length open reading frame of the GluCl cDNA encoding the GluClα (52,550 kDa) and GluClβ (49,900kDa) subunits; expressed in transfected cells; host or cells: Xenopus laevis oocytes injected with in vitro RNA
# T3 sequence (G5EBR3 21-461): T1 sequence (G5EBR3 21-461)
# Description: as §1, §2, §3
# [6] = tested on: glutamate- and avermectin-sensitive chloride channel (C. elegans poly(A)+ RNA); settings: cited from earlier work
# [7] = biological target: T3, GluClα; assay: 3H-ivermectin equilibrium binding to GluClα RNA injected oocytes; set-up: the full-length open reading frame of the GluCl cDNA encoding the GluClα (52,550 kDa) and GluClβ (49,900kDa) subunits; expressed in transfected cells; host or cells: Xenopus laevis oocytes injected with in vitro RNA; species or system C. elegans; settings: read-out: affinity of 3H-ivermectin binding; oocytes expressing GluClα
# Description: (§4) Oocytes injected with GluClα and GluClβ in vitro RNA were used in ^3 H-ivermectin and ^3 H-glutamate binding assays. GluClα (1 ng) or GluClβ RNA (1 ng) were injected into oocytes individually, or coinjected (0.5 ng each) and 2 days later the oocytes were disrupted with a dounce homogenizer and yolk proteins removed using standard methods known in the art. Equilibrium ligand binding assays were performed using conventional procedures. […] Oocytes expressing GluCl α&β are used to measure the affinity of binding of othere compounds and their ability to displace ^3 H-ivermectin and ^3 H-glutamate binding.
# [8] = biological target: T1, GluCl α&β; assay: 3H-ivermectin equilibrium binding to GluCl α&β RNA injected oocytes; set-up: species or system C. elegans; settings: read-out: affinity of 3H-ivermectin binding; oocytes expressing GluCl α&β
# Description: as §4
# [9] = biological target: T3, GluClα; assay: Permeability (reversal potential) of GluClα channels in oocytes; format: cell-based, C. elegans; set-up: homomeric channel; voltage clamp reversal potentials; settings: Erev in Na isothionate
# Description: Xenopus laevis oocytes were prepared and injected using standard methods previously described and known in the art [Arena, J. P., Liu. K. K., Paress, P. S. & Cully. D. F. Mol. Pharmacol. 40, 368-374 (1991 ); Arena, J. P., Liu, K. K., Paress, P. S., Schaeffer, J. M. & Cully, D. F. Mol. Brain Res. 15, 339-348 (1992)]. Adult female Xenopus laevis were anesthetized with 0.17% tricaine methanesulfonate and the ovaries were surgically removed and placed in a dish consisting of (mM): NaCl 1 82.5, KCl 2. MgCl2 1, CaCl2 1.8, HEPES 5 adjusted to pH 7.5 with NaOH (OR-2). Ovarian lobes were broken open, rinsed several times, and gently shaken in OR-2 containing 0.2% collagenase (Sigma, Type 1A) for 2-5 hours. […]
# Recordings were made at room temperature 2-10 days after injection. […] Data were acquired and analyzed using PCLAMP with a TL-1 interface (Axon Instruments, Foster City, Calif.). Membrane current at a holding potential of -80 mV was recorded. The amplitude of drug-sensitive current was determined by subtracting the holding current at -80 mV from the peak current obtained in the presence of drug. […] Current/voltage relationships (I/V) and reversal potentials (Erev) were determined using a 1-3 sec voltage ramp over the voltage range of -110 to +80 mV. […]
# [10] = biological target: T3, GluClα; assay: 3H-glutamate equilibrium binding to GluClα injected oocyte membranes; set-up: the full-length open reading frame of the GluCl cDNA encoding the GluClα (52,550 kDa) and GluClβ (49,900kDa) subunits; expressed in transfected cells; host or cells: Xenopus laevis oocytes injected with in vitro RNA; species or system C. elegans; settings: membrane preparations from GluClα-injected oocytes
# Description: as §4
compound,measurement,setting,value
"C[N+]1(C)CCc2cc3c(cc2C1C1OC(=O)c2c1ccc1c2OCO1)OCO3 (single isomer, unassigned; (-)) [Bicuculline, (-)-Bicuculline methochloride]",inhibition at 100 µM,[1],0%
"N#Cc1cc2[nH]c(=O)c(=O)[nH]c2cc1[N+](=O)[O-] [CNQX, 6-cyano-7-nitroquino-xaline-2,3-dione]",inhibition at 10 µM,[1],0%
O=C(O)c1ccccc1Nc1cccc(C(F)(F)F)c1 [Flufenamic Acid],block of glutamate- and IVMPO4-sensitive currents,[1],blocked; also recorded: low affinity block
same,inhibition at 200 µM,"[1]; blocker 200 μM, ligand IVMPO4 1 μM",60 ± 4%
NCCCC(=O)O [GABA],effect on arthropod H-receptors,[2],not activated
same,activation of current / sensitivity of coexpressed GluCl α&β,[3],insensitivity
same,sensitivity of GluClβ homomeric channels,[4],insensitive
same,sensitivity of GluClα homomeric channels,[5],insensitive
NCC(=O)O [Glycine],activation of current / sensitivity of coexpressed GluCl α&β,[3],insensitivity
same,sensitivity of GluClβ homomeric channels,[4],insensitive
same,sensitivity of GluClα homomeric channels,[5],insensitive
NC(C(=O)O)c1cc(=O)[nH]o1 (stereo not shown) [Ibotenate],effect on glutamate- and avermectin-sensitive current,[6],activated
same,effect on arthropod H-receptors,[2],activated
same,activation of current / sensitivity of coexpressed GluCl α&β,[3],direct activation of current
same,Emax at 500 µM,[3]; read-out: % of Glutamate 10 mM,18 ± 2%
O=C1C[C@@H]2OCC=C3CN4CC[C@]56c7ccccc7N1[C@H]5[C@H]2[C@H]3C[C@H]46 [Strychnine],inhibition at 100 µM,[1],0%
"CC[C@H](C)[C@H]1O[C@]2(CC[C@@H]1C)C[C@@H]1C[C@@H](C/C=C(\C)[C@@H](O[C@H]3C[C@H](OC)[C@@H](O[C@H]4C[C@H](OC)[C@@H](O)[C@H](C)O4)[C@H](C)O3)[C@@H](C)/C=C/C=C3\CO[C@@H]4[C@H](O)C(C)=C[C@@H](C(=O)O1)[C@]34O)O2 [^3 H-ivermectin, 22,23-dihydroavermectin B1a]",Kd,[7],~0.2 nM
same,Kd,[8],~0.2 nM
O=S(=O)(O)CCO [isothionate],permeability ratio to chloride,[9],0.2
Picrotoxin,effect on glutamate- and avermectin-sensitive current,[6],blocked with low affinity
same,effect on arthropod H-receptors,[2],blocked with low affinity
same,block of glutamate- and IVMPO4-sensitive currents,[1],blocked; also recorded: low affinity block
same,% Block,[1]; ligand IVMPO4 1 μM,61 ± 2%
same,% Block,"[1]; ligand glutamate 1 mM, zero if within ± 3% of control",68 ± 4%
^3 H-glutamate,Specific 3H-glutamate binding,[10],observed
